{
  "source": "patent US20210231673A1",
  "about": "“METHODS AND COMPOSITIONS FOR DETECTION AND QUANTIFICATION OF SMALL MOLECULES AND OTHER ANALYTES” (President and Fellows of Harvard College, priority 2018, published 2021)",
  "type_in_all_cases": "binding",
  "key": {"anti-PGE2 antibody [1]": {"tested_on": "anti-PGE2 antibody", "assay": "Two-plex single molecule array assay for PGE2 and cortisol: PGE2", "settings": "simultaneous detection of cortisol and PGE2", "description": "(§1) Carboxylated 2.7 μm paramagnetic beads (˜4×10^8), non-encoded for single-plex assays and dye-encoded (488 nm and 647 nm) for multiplex assays, were washed three times with 600 μL of bead wash buffer (0.1% TWEEN® 20 in 1× PBS, pH 7.4) and twice with 400 μL of MES buffer (50 mM MES, pH 6.2). 1 mg/mL EDC in MES buffer was freshly prepared and 200 μL was added to the beads and mixed well. The beads were activated on a shaker for 30 min. After activation, the beads were washed once with 200 μL of MES buffer. 200 μL of 10 mg/mL BSA or BSA-cortisol conjugate in MES buffer were added to the activated beads. The beads were incubated at room temperature with shaking for 2 h, and then washed three times with bead wash buffer. […] The beads were counted using a Beckman-Coulter MULTISIZER™.\n(§2) A two-step assay configuration was chosen when hapten-BSA-coated beads were used. […] Images of the arrays were analyzed and AEB (average enzyme per bead) values were calculated by the software in the SIMOA HD-1 ANALYZER™.\n(§3) Standard curves were obtained by plotting the signal responses (AEB and OD) against the logarithm of analyte concentrations using Origin software (Origin 9.5). […] The limit of detection (LOD) was calculated as three standard deviations (SDs) above the background. […]"}, "anti-PGE2 antibody [2]": {"tested_on": "anti-PGE2 antibody", "assay": "Single-plex competitive single molecule array assay for PGE2 (BSA-PGE2 beads)", "description": "as §1, §2, §3"}, "[3]": {"tested_on": "anti-cortisol antibody (XM210)", "assay": "Multiplex single molecule array assay for IL-6 and cortisol: cortisol (competitive)", "settings": "simultaneous detection of IL-6 and cortisol", "description": "A two-step assay configuration was used for simultaneous detection of IL-6 and cortisol. BSA-cortisol coated beads were mixed with anti-IL6 capture beads (1:1 in number). The mixed beads were diluted to a concentration of 10,000 beads/μL. A mixture of detection antibodies, 10 pM for anti-cortisol antibody (XM210) and 1 nM for anti-IL6 detector, was prepared in Detector Diluent. A mixture of cortisol and IL-6 standards was serially diluted to desired concentrations. All the other conditions were the same as the single-plex assay.\nStandard curves were obtained by plotting the signal responses (AEB and OD) against the logarithm of analyte concentrations using Origin software (Origin 9.5). The 4-parameter logistic equation y=A2+(A1−A2)/[1+(x/x0)^P] was used for curve fitting in the whole concentration range, where A1 is the maximum signal without analyte, A2 is the minimum signal at infinite concentration, p is the curve slope at the inflection point, and x0 is the IC50 (analyte concentration causing a 50% inhibition of the maximum response). The lower the IC50 is, the higher the sensitivity is. The limit of detection (LOD) was calculated as three standard deviations (SDs) above the background. All measurements were performed in triplicate. […]"}, "[4]": {"assay": "Conventional competitive ELISA for cortisol (BSA-cortisol coated plate)", "settings": "cortisol concentration causing 50% inhibition of maximum response", "description": "The high-binding 96-well microtiter plate was coated with BSA-cortisol conjugate in PBS (1 μg/mL, 100 μL/well) overnight at 4° C. After washing, the plate was blocked with 1% BSA in PBS (200 μL/well) for 1 h at room temperature and subsequently washed. Next, biotinylated anti-cortisol (10 nM, 10 μL/well) in PBS and serial concentrations of cortisol standard (0, 0.001, 0.01, 0.1, 1, 10, 100 and 1,000 ng/mL,100 μL/well) prepared in Sample Diluent were added to the wells. The immunoreaction was allowed to proceed for 1 h. After washing, the plate was incubated with streptavidin-horseradish peroxidase (HRP((2 nM, 100 μL/well) for 30 min. After another washing, 3,3′,5,5′-tetramethylbenzidine (TMB) substrate (100 μL/well) was added and the plate was incubated for 15 min. Next, 50 μL of 1 mol/L hydrochloric acid was added to each well to stop the enzymatic reaction. Finally, the optical density (OD) was recorded at 450 nm on a Tecan Infinite M200 Plate Reader.\nas §3"}, "anti-cortisol antibody": {"tested_on": "anti-cortisol antibody", "assay": "Two-plex single molecule array assay for PGE2 and cortisol: cortisol", "settings": "simultaneous detection of cortisol and PGE2", "description": "as §1, §2, §3"}, "[5]": {"assay": "Competitive single molecule array assay, BSA-cortisol MBs (two-step, single-plex)", "settings": "single-plex comparison to IL-6/cortisol multiplex", "description": "A two-step assay configuration was chosen when hapten-BSA-coated beads were used. Specifically, hapten-BSA-coated capture beads were diluted in Bead Diluent (Quanterix) to a concentration of 5,000 beads/μL. Biotinylated detector antibodies were diluted in Detector Diluent (Quanterix) to the desired concentration (1 pM for anti-cortisol antibodies, and 1 nM for anti-PGE2 antibodies). SβG concentrate was diluted to 200 pM in SβG Diluent (Quanterix). Cortisol and PGE2 standards were serially diluted to desired concentrations in Sample Diluent. The reagents including beads, detector, and SβG were placed in plastic bottles (Quanterix). The samples were loaded onto a 96-well plate (Quanterix). […] Images of the arrays were analyzed and AEB (average enzyme per bead) values were calculated by the software in the SIMOA HD-1 ANALYZER™.\nas §3\nWe applied single molecule array assay to small molecule detection by developing a bead-based competitive protocol. […] The beads labeled with detection probes were then labeled with an enzyme, SβG, via biotin-streptavidin interaction and detected by enzymatic readout on the SIMOA™ platform. […]"}},
  "data": [
    {"smiles": "CCCCC[C@H](O)/C=C/[C@H]1[C@H](O)CC(=O)[C@@H]1C/C=C\\CCCC(=O)O", "note": "[PGE2, Prostaglandin E2]", "values": [
      {"measurement": "IC50 for PGE2, two-plex assay", "setting": "anti-PGE2 antibody [1]", "result": 0.7, "unit": "ng/mL"},
      {"measurement": "IC50 for PGE2, single-plex assay", "setting": "anti-PGE2 antibody [2]", "result": 0.37, "unit": "ng/mL"}
    ]},
    {"smiles": "C[C@]12CCC(=O)C=C1CC[C@@H]1[C@@H]2[C@@H](O)C[C@@]2(C)[C@H]1CC[C@]2(O)C(=O)CO", "note": "[cortisol]", "values": [
      {"measurement": "IC50 for cortisol, multiplex assay with IL-6", "setting": "[3]", "result": 0.57, "unit": "ng/mL"},
      {"measurement": "ELISA IC50", "setting": "[4]", "result": 170.23, "unit": "ng/mL"},
      {"measurement": "IC50 for cortisol, two-plex assay", "setting": "anti-cortisol antibody", "result": 0.46, "unit": "ng/mL"},
      {"measurement": "IC50 for cortisol, single-plex assay", "setting": "[5]", "result": 0.54, "unit": "ng/mL"}
    ]}
  ]
}
